From US4663327A, “1-heteroaryl-4-aryl-pyrazolin-5-ones” (priority 1984, dated 1987)
≈ marks a conversion by molar mass, not a printed value.

Columns and labels:
[1] = test system: Alternaria tenuis; assay: MIC on fungi in agar; settings: Alternaria alternata, 336 h
Experimental: (§1) After storage for 2 weeks at 28° C. and 60 to 70% relative atmospheric humidity, the MIC is determined.

[2] = test system: Aspergillus niger; assay: MIC on fungi in agar; settings: 336 h
Experimental: as §1

[3] = test system: Aureobasidium pullulans; assay: MIC on fungi in agar; settings: 336 h
Experimental: as §1

[4] = test system: Chaetomium globosum; assay: MIC on fungi in agar; settings: 336 h
Experimental: as §1

[5] = test system: Coniophora puteana; assay: MIC on fungi in agar; settings: 336 h
Experimental: as §1

[6] = test system: Lentinus tigrinus; assay: MIC on fungi in agar; settings: 336 h
Experimental: as §1

[7] = test system: Penicillium glaucum; assay: MIC on fungi in agar; settings: 336 h
Experimental: as §1

[8] = test system: Polyporus versicolor; assay: MIC on fungi in agar; settings: Trametes versicolor, 336 h
Experimental: as §1

[9] = test system: Sclerophoma pityophila; assay: MIC on fungi in agar; settings: Sydowia polyspora, 336 h
Experimental: as §1

[10] = test system: Trichoderma viride; assay: MIC on fungi in agar; settings: 336 h
Experimental: as §1

[11] = test system: slime organisms; assay: Action against slime organisms in Allen's nutrient solution (MIC); settings: 504 h
Experimental: Substances according to the invention, dissolved in a small amount of acetone, are used in concentrations of, in each case, 0.1 to 100 mg/l in Allen's nutrient solution (Arch. Mikrobiol. 17, 34 to 53 (1952)), which contains, in 4 l of sterile water, 0.2 g of ammonium chloride, 4.0 g of sodium nitrate, 1.0 g of dipotassium hydrogen phosphate, 0.2 g of calcium chloride, 2.05 g of magnesium sulphate, 0.02 g of iron chloride and 1% of caprolactam. Shortly beforehand, the nutrient solution is infected with slime organisms (approx. 10^6 organisms/ml) which have been isolated from the spinning water circulations used in the manufacture of polyamide.

[12] = test system: Pyricularia oryzae; type: in vivo; settings: rice, soil watered 7 days before inoculation, disease infestation 4 days after inoculation
[13] = test system: Leptosphaeria nodorum; assay: Leptosphaeria nodorum test (wheat)/protective; type: in vivo; settings: sprayed, evaluation 10 days after inoculation
Experimental: Leptosphaeria nodorum test (wheat)/protective Solvent: 100 parts by weight of dimethylformamide Emulsifier: 0.25 parts by weight of alkylaryl polyglycol ether To produce a suitable preparation of active compound, 1 part by weight of active compound is mixed with the stated amounts of solvent and emulsifier, and the concentrate is diluted with water to the desired concentration. To test for protective activity, young plants are sprayed with the preparation of active compound until dew-moist. After the spray coating has dried on, the plants are sprayed with a conidia suspension of Leptosphaeria nodorum. The plants remain for 48 hours in an incubation cabinet at 20° C. and 100% relative atmospheric humidity. The plants are placed in a greenhouse at a temperature of about 15° C. and a relative atmospheric humidity of about 80%. Evaluation is effected 10 days after the inoculation.

[14] = test system: Cochliobolus sativus; assay: Cochliobolus sativus test (barley)/protective; type: in vivo; settings: sprayed, evaluation 7 days after inoculation
Experimental: Cochliobolus sativus test (barley)/protective Solvent: 100 parts by weight of dimethylformamide Emulsifier: 0.25 parts by weight of alkylaryl polyglycol ether To produce a suitable preparation of active compound, 1 part by weight of active compound is mixed with the stated amounts of solvent and emulsifier, and the concentrate is diluted with water to the desired concentration. To test for protective activity, young plants are sprayed with the preparation of active compound until dew-moist. After the spray coating has dried on, the plants are sprayed with a conidia suspension of Cochliobolus sativus. The plants remain in an incubation cabinet for 48 hours at 20° C. and 100% relative atmospheric humidity. The plants are placed in a greenhouse at a temperature of about 20° C. and a relative atmospheric humidity of about 80%. Evaluation is carried out 7 days after the inoculation.

[15] = test system: Botrytis cinerea; assay: Botrytis test (BEAN)/protective; type: in vivo; settings: sprayed, infected spots on leaves evaluated 3 days after inoculation
Experimental: Botrytis test (BEAN)/protective Solvent: 4.7 parts by weight of acetone Emulsifier: 0.3 parts by weight alkyl aryl polyglycol ether To produce a suitable preparation of active compound, 1 pat by weight of active compound is mixed with the stated amounts of solvent and emulsifier, and the concentrate is diluted with water to the desired concentration. To test for protective activity, young plants are sprayed with the preparation of active compound until dripping wet. After the spray coating has dried on, 2 small pieces of agar covered with Botrytis cinerea are placed on each leaf. The inoculated plants are placed in a darkened humidity chamber at 20° C. 3 days after the inoculation, the size of the infected spots on the leaves is evaluated.

[16] = test system: Drechslera graminea; assay: Drechslera graminea test (barley)/seed treatment; type: in vivo, Drechslera graminea (syn. Helminthosporium gramineum); settings: seed dry dressing, about 3 weeks after sowing
Experimental: Drechslera […] (barley)/seed treatment (syn. Helminthosporium gramineum) The active compounds are used as dry dressings. These are prepared by extending the paticular active compound with a ground mineral to give a finely pulverulent mixture, which ensures uniform distribution on the seed surface. To apply the dressing, the infected seed is shaken with the dressing in a closed glass flask for 3 minutes. The seed is embedded in sieved, moist standard soil and is exposed to a temperature of 4° C. in closed Petri dishes in a refrigerator for 10 days. Germination of the barley, and possibly also of the fungus spores, is thereby initiated. 2 batches of 50 grains of the pregerminated barley are subsequently sown 3 cm deep in standard soil and are cultivated in a greenhouse at a temperature of about 18° C., in seedboxes which are exposed to light for 15 hours daily. About 3 weeks after sowing, the plants are evaluated for symptons of stripe disease.

[17] = test system: Phytophthora infestans; type: in vivo; settings: tomato, sprayed, evaluation 3 days after inoculation
[18] = test system: Pyricularia oryzae; type: in vivo; settings: rice, sprayed, disease infestation 4 days after inoculation

In the case of `O=c1c(-c2ccccc2)c[nH]n1-c1ccccn1` [Example 4, 1-pyrid-2-yl-4-phenyl-pyrazolin-5-one], the MIC [1] is reported as 50 µg/mL (≈ 211 µM), the MIC [2] is reported as 7.5 µg/mL (≈ 31.6 µM) and the MIC [3] is reported as 100 µg/mL (≈ 421 µM). It also gave an MIC [4] of 1.5 µg/mL (≈ 6.32 µM), an MIC [5] of 5 µg/mL (≈ 21.1 µM) and an MIC [6] of 75 µg/mL (≈ 316 µM). The MIC [7] was 10 µg/mL (≈ 42.1 µM), the MIC [8] was 35 µg/mL (≈ 148 µM) and the MIC [9] was 10 µg/mL (≈ 42.1 µM). For the same compound, the MIC [10] was 200 µg/mL (≈ 843 µM) and the MIC [11] was 15 µg/mL (≈ 63.2 µM).

`O=c1c(-c2ccc(OC(F)(F)F)cc2)c[nH]n1-c1ccccn1` [Example 18] was tested, and the systemic activity [12] was “clearly superior activity compared with the prior art”, the protective activity [13] was “clearly superior activity compared with the prior art” and the protective activity [14] was “clearly superior activity compared with the prior art”.

In the case of `Cc1ccccc1-c1c[nH]n(-c2ccccn2)c1=O` [Example 21], the protective activity [15] is reported as “clearly superior activity compared with the prior art”, the systemic activity [12] is reported as “clearly superior activity compared with the prior art” and the protective activity [14] is reported as “clearly superior activity compared with the prior art”. The “activity, symptoms of stripe disease” value [16] was “clearly superior activity compared with the prior art”, the MIC [1] was 10 µg/mL (≈ 39.8 µM) and the MIC [2] was 7.5 µg/mL (≈ 29.8 µM). It also gave an MIC [3] of 35 µg/mL (≈ 139 µM), an MIC [4] of 0.75 µg/mL (≈ 2.98 µM) and an MIC [5] of 5 µg/mL (≈ 19.9 µM). The MIC [6] was 50 µg/mL (≈ 199 µM), the MIC [7] was 7.5 µg/mL (≈ 29.8 µM) and the MIC [8] was 7.5 µg/mL (≈ 29.8 µM). It also gave an MIC [9] of 35 µg/mL (≈ 139 µM) and an MIC [10] of 50 µg/mL (≈ 199 µM).

For `Cc1ccc(-c2c[nH]n(-c3ccccn3)c2=O)cc1` [Example 23], the MIC [1] was 75 µg/mL (≈ 298 µM), the MIC [2] was 7.5 µg/mL (≈ 29.8 µM) and the MIC [3] was 50 µg/mL (≈ 199 µM). It also gave an MIC [4] of 0.5 µg/mL (≈ 1.99 µM), an MIC [5] of 35 µg/mL (≈ 139 µM) and an MIC [6] of 75 µg/mL (≈ 298 µM). It also gave an MIC [7] of 5 µg/mL (≈ 19.9 µM), an MIC [8] of 3.5 µg/mL (≈ 13.9 µM) and an MIC [9] of 20 µg/mL (≈ 79.6 µM). It also gave an MIC [10] of 1000 µg/mL (≈ 3980 µM) and an MIC [11] of 7.5 µg/mL (≈ 29.8 µM).

`O=c1c(-c2ccc(F)cc2)c[nH]n1-c1ncccn1` [Example 83] showed an MIC [1] of 50 µg/mL (≈ 195 µM), an MIC [2] of 15 µg/mL (≈ 58.5 µM) and an MIC [3] of 50 µg/mL (≈ 195 µM). For the same compound, the MIC [4] was 3.5 µg/mL (≈ 13.7 µM), the MIC [5] was 5 µg/mL (≈ 19.5 µM) and the MIC [6] was 50 µg/mL (≈ 195 µM). The MIC [7] was 20 µg/mL (≈ 78.1 µM), the MIC [8] was 35 µg/mL (≈ 137 µM) and the MIC [9] was 5 µg/mL (≈ 19.5 µM). The MIC [10] was 75 µg/mL (≈ 293 µM) and the MIC [11] was 35 µg/mL (≈ 137 µM).

`O=c1c(-c2cc(C(F)(F)F)ccc2Cl)c[nH]n1-c1ncccn1` [Example 102] was tested, and the protective activity [17] was “clearly superior activity compared with the prior art”, the protective activity [15] was “clearly superior activity compared with the prior art” and the protective activity [18] was “clearly superior activity compared with the prior art”. For the same compound, the systemic activity [12] was “clearly superior activity compared with the prior art”.

With `O=c1c(-c2cccc3ccccc23)c[nH]n1-c1ncccn1` [Example 105] the protective activity [17] was “clearly superior activity compared with the prior art”, the protective activity [18] was “clearly superior activity compared with the prior art” and the systemic activity [12] was “clearly superior activity compared with the prior art”.
